Test results published in the NIST ThermoML archive (doi:10.1016/j.fluid.2004.09.013).
Numbers after ± are expanded uncertainties.

Settings: for mass density: Fluid (supercritical or subcritical phases), Vibrating tube method

C=CCC [1-butene]
Settings	Critical density [kg/m3]	mass density [kg/m3]
453.25 K, 9992 kPa	–	366.88 ± 0.87
458.24 K, 5019 kPa	–	127.66 ± 0.62
458.24 K, 14983 kPa	–	409.67 ± 0.92
458.24 K, 20004 kPa	–	440.23 ± 1
458.24 K, 29989 kPa	–	478.1 ± 1.2
458.24 K, 34985 kPa	–	491.83 ± 1.3
458.24 K, 39994 kPa	–	503.63 ± 1.4
458.25 K, 9993 kPa	–	354.52 ± 0.85
458.25 K, 25009 kPa	–	461.51 ± 1.1
463.24 K, 5016 kPa	–	120.75 ± 0.6
463.24 K, 14996 kPa	–	401.9 ± 0.91
463.24 K, 19997 kPa	–	433.9 ± 1
463.24 K, 25004 kPa	–	456.08 ± 1.1
463.24 K, 30003 kPa	–	473.27 ± 1.2
463.24 K, 34993 kPa	–	487.39 ± 1.3
463.25 K, 9983 kPa	–	341.52 ± 0.83
463.25 K, 39998 kPa	–	499.47 ± 1.4
468.24 K, 5016 kPa	–	115 ± 0.58
468.24 K, 9989 kPa	–	328.56 ± 0.8
468.24 K, 14982 kPa	–	393.76 ± 0.89
468.24 K, 19984 kPa	–	427.48 ± 0.99
468.24 K, 24997 kPa	–	450.6 ± 1.1
468.24 K, 30000 kPa	–	468.38 ± 1.2
468.24 K, 35011 kPa	–	482.95 ± 1.3
468.24 K, 39999 kPa	–	495.31 ± 1.4
473.24 K, 5018 kPa	–	110.27 ± 0.55
473.24 K, 9985 kPa	–	315.25 ± 0.78
473.24 K, 19988 kPa	–	421.13 ± 0.98
473.24 K, 24992 kPa	–	445.14 ± 1.1
473.24 K, 29997 kPa	–	463.51 ± 1.2
473.24 K, 35002 kPa	–	478.49 ± 1.2
473.24 K, 39996 kPa	–	491.17 ± 1.3
473.25 K, 14995 kPa	–	385.74 ± 0.88
478.24 K, 5019 kPa	–	106.11 ± 0.53
478.24 K, 9987 kPa	–	302.04 ± 0.75
478.24 K, 14989 kPa	–	377.47 ± 0.86
478.24 K, 19983 kPa	–	414.69 ± 0.97
478.24 K, 24987 kPa	–	439.66 ± 1.1
478.24 K, 30006 kPa	–	458.68 ± 1.1
478.24 K, 35011 kPa	–	474.08 ± 1.2
478.24 K, 39998 kPa	–	487.02 ± 1.3
483.24 K, 5019 kPa	–	102.43 ± 0.51
483.24 K, 9986 kPa	–	289.02 ± 0.72
483.24 K, 14996 kPa	–	369.24 ± 0.85
483.24 K, 19994 kPa	–	408.37 ± 0.95
483.24 K, 24993 kPa	–	434.22 ± 1.1
483.24 K, 30007 kPa	–	453.8 ± 1.1
483.24 K, 35009 kPa	–	469.63 ± 1.2
483.24 K, 39997 kPa	–	482.92 ± 1.3
488.24 K, 5019 kPa	–	99.18 ± 0.48
488.24 K, 9991 kPa	–	276.55 ± 0.7
488.24 K, 14995 kPa	–	361.05 ± 0.83
488.24 K, 20003 kPa	–	402.02 ± 0.94
488.24 K, 24984 kPa	–	428.73 ± 1
488.24 K, 29996 kPa	–	448.96 ± 1.1
488.24 K, 35002 kPa	–	465.2 ± 1.2
488.24 K, 39995 kPa	–	478.82 ± 1.3
493.24 K, 5019 kPa	–	96.24 ± 0.46
493.24 K, 9993 kPa	–	264.66 ± 0.67
493.24 K, 14985 kPa	–	352.7 ± 0.82
493.24 K, 19990 kPa	–	395.6 ± 0.93
493.24 K, 24997 kPa	–	423.36 ± 1
493.24 K, 30000 kPa	–	444.14 ± 1.1
493.24 K, 35000 kPa	–	460.8 ± 1.2
493.24 K, 39994 kPa	–	474.74 ± 1.3
498.24 K, 5019 kPa	–	93.59 ± 0.44
498.24 K, 9985 kPa	–	253.12 ± 0.65
498.24 K, 14988 kPa	–	344.51 ± 0.8
498.24 K, 19988 kPa	–	389.08 ± 0.92
498.24 K, 25004 kPa	–	417.97 ± 1
498.24 K, 30000 kPa	–	439.33 ± 1.1
498.24 K, 35005 kPa	–	456.43 ± 1.2
498.24 K, 39995 kPa	–	470.68 ± 1.3
503.24 K, 5016 kPa	–	91.1 ± 0.42
503.24 K, 9996 kPa	–	242.88 ± 0.63
503.24 K, 14997 kPa	–	336.49 ± 0.79
503.24 K, 19985 kPa	–	382.45 ± 0.9
503.24 K, 25003 kPa	–	412.55 ± 1
503.24 K, 29994 kPa	–	434.51 ± 1.1
503.24 K, 34998 kPa	–	452.04 ± 1.2
503.24 K, 39994 kPa	–	466.64 ± 1.3
508.24 K, 5019 kPa	–	88.94 ± 0.41
508.24 K, 9985 kPa	–	232.83 ± 0.6
508.24 K, 14995 kPa	–	328.41 ± 0.77
508.24 K, 20001 kPa	–	376.3 ± 0.89
508.24 K, 25001 kPa	–	407.17 ± 1
508.24 K, 29985 kPa	–	429.72 ± 1.1
508.24 K, 34995 kPa	–	447.71 ± 1.2
508.24 K, 39994 kPa	–	462.63 ± 1.3
513.23 K, 19985 kPa	–	369.92 ± 0.88
513.23 K, 35000 kPa	–	443.43 ± 1.2
513.24 K, 5019 kPa	–	86.9 ± 0.39
513.24 K, 9990 kPa	–	224.06 ± 0.58
513.24 K, 14981 kPa	–	320.32 ± 0.76
513.24 K, 24995 kPa	–	401.8 ± 0.99
513.24 K, 30001 kPa	–	425.05 ± 1.1
513.24 K, 39991 kPa	–	458.64 ± 1.3
518.23 K, 5019 kPa	–	85.01 ± 0.38
518.23 K, 14997 kPa	–	312.76 ± 0.74
518.23 K, 19988 kPa	–	363.73 ± 0.87
518.23 K, 25002 kPa	–	396.53 ± 0.98
518.23 K, 30001 kPa	–	420.37 ± 1.1
518.23 K, 35013 kPa	–	439.18 ± 1.2
518.24 K, 9981 kPa	–	215.7 ± 0.56
518.24 K, 39995 kPa	–	454.74 ± 1.3
523.23 K, 5018 kPa	–	83.27 ± 0.37
523.23 K, 9990 kPa	–	208.53 ± 0.58
523.23 K, 14996 kPa	–	305.24 ± 0.77
523.23 K, 19995 kPa	–	357.64 ± 0.87
523.23 K, 25003 kPa	–	391.29 ± 0.97
523.23 K, 30001 kPa	–	415.71 ± 1.1
523.23 K, 35000 kPa	–	434.96 ± 1.2
523.23 K, 40001 kPa	–	450.86 ± 1.2
Liquid, visual observation in a variable volume cell:FP	237.88 ± 4.8	–

Liquid
Settings	Critical pressure [kPa]	Critical temperature [K]
–	4005.1 ± 11	419.29 ± 0.11
